According to patent US20070093461A1, “Effect of Loteprednol etabonate on vascular dysfunction” (Bausch & Lomb Incorporated, priority 2005, published 2007):
Entries after “also recorded” stand apart in the source; their conditions may differ.

Columns and labels:
Type in all cases: cell-based, human
ZO-1 = assay: Immunohistochemistry of tight junction protein ZO-1 in VEGF-treated HREC; settings: LE 10 & 50 μM for 1 hour, then VEGF 20 ng/ml for 1 hour, listed as LE
Protocol: Human retina endothelial cells were seeded onto an 8-well glass chamber and allowed to become 80-90% confluent. Cells were treated with or without LE for 1 hour and then treated with VEGF (20 ng/ml) for 1 hour. HREC were immediately fixed and stained with specific antibodies to occludin and zonula occluden-1 (Zymed). FITC-conjugated secondary antibodies (R&D Systems) were used to visualize tight junction distribution/integrity.

VEGF = assay: ELISA for VEGF in supernatants of LE-treated HREC; settings: LE 0, 10, 25 & 50 μM, 3 days
Protocol: (§1) HREC were treated with LE (10, 25 and 50 μM) for 3 days. Supernatants were removed and microcentrifuge (Beckman Microfuge R) 1000 RPM for 10 min (4° C. after which they were stored at −70° C. until needed. ELISA kits (R&D systems) for human vascular endothelial growth factor (VEGF), soluble intracellular adhesion molecule (sICAM-1) and soluble vascular cell adhesion molecule (sVCAM-1) were used according to the manufacturer's instructions.

HREC = assay: Cellular toxicity in LE-treated HREC; settings: highest concentration of LE tested (50 μM)
occludin = assay: Western blot analysis of occludin in cell lysates; settings: LE 0, 10 & 50 μM; daily administration for 3 days necessary to maintain effect
Protocol: Cells were treated with LE (0, 10 & 50 μM) for either 3 days or LE (0, 10 & 50 μM) was replenished everyday for 3 days. Cells were lysed and protein levels determined/adjusted (see above). SDS PAGE was performed on cell lysates and then separated proteins were transferred on to a nitrocellulose (NC) paper (Invitrogen). NC paper was blocked with 3% non-fat milk in phosphate buffered saline (PBS) for 1 hour and then probed with specific anti bodies to occludin (Rabbit anti-occludin polyclonal and monoclonal antibodies, Zymed); Goat anti-occludin (Santa Cruz). NC paper was then incubated with secondary horseradish peroxidase conjugated antibody for 1 hour and the bands were visualized using DAB (3,3′-diaminobenzidine) (Vector Laboratories) or cheminluminescence (SuperSignal West Dura, Pierce).

sVCAM-1 = assay: ELISA for sVCAM-1 in supernatants of LE-treated HREC; settings: HREC with or without LPS activation; LE 0, 10, 25 & 50 μM, 3 days; p≦0.05 (FIG. 2A)
Protocol: as §1

sICAM-1 = assay: ELISA for sICAM-1 in supernatants of LE-treated HREC; settings: HREC with or without LPS activation; LE 0, 10, 25 & 50 μM, 3 days; p≦0.05 (FIG. 2B)
Protocol: as §1

Compound: CCOC(=O)O[C@]1(C(=O)OCCl)CC[C@H]2[C@@H]3CCC4=CC(=O)C=C[C@]4(C)[C@H]3[C@@H](O)C[C@@]21C [Loteprednol etabonate]
- effect on VEGF-induced disruption/redistribution of ZO-1 (tight junction) (ZO-1): reversed the effect of VEGF tight junction disruption; also recorded: inhibited the effect of VEGF-induced disruption of ZO-1
- expression of VEGF (VEGF; HREC with LPS activation, p≦0.01 (FIG. 1A)): significantly down regulated
- expression of VEGF (VEGF; HREC without LPS activation, p≦0.01 (FIG. 1B)): significantly down regulated
- cellular toxicity (HREC): no apparent cellular toxicity
- total content of occludin (occludin): increased
- expression of sVCAM-1 (sVCAM-1): significantly down regulated
- expression of sICAM-1 (sICAM-1): significantly down regulated
